Assay results from patent US20130273649A1, “Culture medium for pluripotent stem cells” (UNIVERSITY OF SOUTHERN CALIFORNIA, priority 2012, published 2013).

Columns and labels:
H9 human ESCs = test: Human ESC self-renewal culture; format: cell-based
Excerpt: As human ESCs share defining features with mouse EpiSCs (Hanna et al., 2010; Rossant, 2008; Tesar et al., 2007), we tested whether modulating β-catenin function can also promote human ESC self-renewal. […] Next, we examined the effect of CHIR/XAV and CHIR/IWR-1 on human ESC self-renewal. […] Similar results were obtained in H1 and HES3 human ESCs (data not shown). […] Moreover, human ESCs maintained in CHIR/IWR-1 express pluripotency markers Oct4, Nanog and Sox2 (FIG. 7E), and retain the ability to differentiate into cells of all three germ layers, both in vitro and in vivo (FIGS. 7F and 7G).
The basal medium for mouse EpiSC culture is the conventional mouse ESC medium, which consists of GMEM (Sigma) supplemented with 10% fetal bovine serum (FBS) (Hyclone), 2 mM L-glutamine (Invitrogen), 1 mM sodium pyruvate (Invitrogen), 1% nonessential amino acids (Invitrogen), and 0.1 mM (3-mercaptoethanol. Mouse EpiSCs were derived and maintained in the basal medium supplemented with FGF2/activin, CHIR/XAV, or CHIR/IWR-1. The basal medium for rat EpiSC culture is N2B27 (Tong et al., 2011), which was prepared by mixing 500 ml of DMEM/F12 (Invitrogen) with 500 ml of Neurobasal™ medium (Invitrogen), and adding 5 ml of N2 (Invitrogen), 10 ml of B27 (Invitrogen), 5 ml of Glutamax™ (Invitrogen), and 1 ml of 0.1 M β-mercaptoethanol (Sigma). The basal medium for human ESC culture consists of Knockout™ DMEM/F12 supplemented with 20% KSR (Invitrogen), 1% nonessential amino acids, 2 mM L-glutamine, and 0.1 mM (3-mercaptoethanol. Human ESCs were cultured in the basal medium supplemented with FGF2, CHIR/XAV, or CHIR/IWR-1.
H1, H9, HES-2 and HES-3 human ESC lines were kindly provided by the University of Southern California Stem Cell Core Facility. Human ESCs were routinely maintained on γ-irradiated MEF feeders in Knockout™ DMEM medium (Invitrogen) supplemented with 20% Knockout™ serum replacement (KSR; Invitrogen), 10 ng/ml FGF2 (PeproTech), 1% nonessential amino acids, 2 mM L-glutamine, and 0.1 mM β-mercaptoethanol. […]

Axin1 = test: Western blot of Axin1 in human ESCs; format: cell-based; settings: human ESCs treated 24 h
Experimental: (A) TOPFlash™ assay in H9 human ESCs subjected to the indicated treatments for 24 h. Data represent mean±s.d. of three biological replicates. (B) Representative phase contrast and alkaline phosphatase (AP) staining images of H9 human ESCs cultured in the indicated conditions for 3 passages. (C) Phase contrast images of H9 human ESCs cultured in CHIR/XAV or CHIR/IWR-1 for 11 passages. (D) Colony forming efficiency assay of H9 human ESCs cultured in FGF2 or CHIR/IWR-1 conditions. Data represent mean±s.d. of three biological replicates. Right panel: a representative image showing AP staining of colonies formed from H9 human ESCs cultured in either FGF2 or CHIR/IWR-1 condition. (E) Human ESCs cultured in CHIR/IWR-1 for 11 passages were immunostained with the indicated antibodies. (F) Embryoid bodies (EBs) were generated from H9 human ESCs cultured in CHIR/IWR-1 for 11 passages. The outgrowths of EBs were immunostained with the indicated antibodies. (G) H&E staining of teratomas generated from H9 ESCs cultured in CHIR/IWR-1 for 20 passages. (H) Western blot analysis of Axin1 and Axin2 expression in HES3 human ESCs treated with the indicated cytokines/inhibitors for 24 h. (I) Immunofluorescence images of H9 human ESCs (passage 5 in CHIR) overexpressing Flag-tagged Axin2. […]

**Q.** What does the source list for `Cc1c[nH]c(-c2cnc(NCCNc3ccc(C#N)cn3)nc2-c2ccc(Cl)cc2Cl)n1` [CHIR99021, 6-((2-((4-(2,4-Dichlorophenyl)-5-(4-methyl-1H-imidazol-2-yl)pyrimidin-2-yl)amino)ethyl)amino)nicotinonitrile]?
**A.** self-renewal of Axin2-overexpressing human ESCs (H9 human ESCs; Axin2-hESC (H9), CHIR alone): could support stable and long-term self-renewal of Axin2-hESCs; human ESC self-renewal / differentiation (H9 human ESCs; H9 human ESCs, CHIR 3 μM, IWR-1 2.5 μM, XAV939 2 μM): induced differentiation of H9 human ESCs; amount of Axin1 protein (Axin1): not Axin1
